EC50 and IC50 data for 22 compounds are collected here from patent publication US10316017B2, “COT modulators and methods of use thereof” (Gilead Sciences, Inc., priority 2015, dated 2019).

SMILES strings stand for the structures. Where two headings read alike, the source gives them in different places.

Assay [1] deals with TNFα production in LPS-stimulated human monocytes. The experiment in a line: Cot Monocyte TNFα Cell Based Assay. To be noted: Homo sapiens, Monocyte, read-out: EC50 TNF. The procedure, abridged:
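Human monocytes (5,000 cells/well) pretreated with compound for 1 hour at 37° C (0.5% DMSO), then stimulated with 50 pg/ml LPS for 4 hours. Total TNFα measured by TR-FRET after overnight antibody incubation at room temp, expressed as percent of control between unstimulated and stimulated cells.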

For assay [2], the target named is T1, human Cot catalytic domain (30-397 amino acids) (Homo sapiens, UniProt P41279).
T1 construct: Purified recombinant human Cot catalytic domain (30-397 amino acids) was purchased from Cama Biosciences; purchased Cama Biosciences (so in the source)
T1 sequence (P41279 30-397): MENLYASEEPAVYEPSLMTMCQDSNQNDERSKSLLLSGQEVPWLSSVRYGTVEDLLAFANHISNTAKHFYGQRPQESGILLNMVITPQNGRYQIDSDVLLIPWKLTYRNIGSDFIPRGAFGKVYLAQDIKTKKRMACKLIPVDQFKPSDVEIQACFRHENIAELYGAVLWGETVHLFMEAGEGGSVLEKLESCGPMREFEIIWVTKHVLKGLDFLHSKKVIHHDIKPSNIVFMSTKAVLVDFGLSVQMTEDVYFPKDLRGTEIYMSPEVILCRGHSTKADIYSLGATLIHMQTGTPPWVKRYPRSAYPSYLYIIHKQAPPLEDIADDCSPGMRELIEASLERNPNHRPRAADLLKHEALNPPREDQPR
The assay is described as follows: High Throughput Cot Biochemical Assay (KinEASE TR-FRET). As to conditions: read-out: IC50 HTRF. The procedure, abridged:
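Recombinant human Cot catalytic domain (aa 30-397), 5 nM, with 1 μM STK3 peptide and 400 μM ATP in MOPS pH 7.0 buffer with MgOAc, DTT, BSA, NP-40, glycerol, 0.1% DMSO. Phosphorylated XL665-peptide detected by Eu-[…] antibody TR-FRET.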
In general terms: In TR-FRET formats the signal depends on donor and acceptor labels being close together.

The mark [3] stands for this setting: TNFα in LPS-stimulated human monocytes.
The mark [4] stands for this setting: Cot biochemical HTRF (KinEASE TR-FRET) assay.
Where [5] appears, read: Cot KinEASE TR-FRET (HTRF) biochemical assay, 400 μM ATP.
The mark [6] stands for this setting: LPS-stimulated human monocytes, TNFα TR-FRET.
Where [7] appears, read: Cot KinEASE TR-FRET, 400 μM ATP.

On to `CCN1CCC(n2cc([C@H](c3ccccc3)N(CC)c3cc(Cl)c4ncc(C#N)c(Nc5ccc(F)c(Cl)c5)c4c3)nn2)CC1` [Example 792, (S)-8-chloro-4-((3-chloro-4-fluorophenyl)amino)-6-(ethyl((1-(1-ethylpiperidin-4-yl)-1H-1,2,3-triazol-4-yl)(phenyl)methyl)amino) quinoline-3-carbonitrile], for which the EC50 in assay [1] (setting [3]) stood at 91 nM. The IC50 in assay [2] (setting [4]) was determined as 5 nM.

For `CCN1CC2(CC(n3cc([C@@H](Nc4cc(Cl)c5ncc(C#N)c(Nc6ccc(F)c(Cl)c6)c5c4)c4ccccc4)nn3)C2)C1` [Example 774], the EC50 in assay [1] (setting [3]) is 127 nM. Further, the IC50 in assay [2] (setting [4]) came to 3 nM.

Take `[2H][C@](Nc1cc(Cl)c2ncc(C#N)c(NC(C)CCO)c2c1)(c1ccc(F)cc1)c1cn(C2CC2)nn1` (some centres unmarked) [Example 174]: the EC50 in assay [1] (setting [3]) is greater than 10000 nM. Also, the IC50 in assay [2] (setting [5]) turned out to be 837 nM.

With `[2H][C@](Nc1cc(Cl)c2ncc(C#N)c(NC3C4CC5CC(C4)CC3C5)c2c1)(c1ccc(F)cc1)c1cn(C2CC2)nn1` (stereo partly drawn) [Example 246, 4-(((1S,3S,5S,7S)-adamantan-2-yl)amino)-8-chloro-6-(((S)-(1-cyclopropyl-1H-1,2,3-triazol-4-yl)(4-fluorophenyl)methyl-d)amino)quinoline-3-carbonitrile], the EC50 in assay [1] (setting [3]) turned out to be 490 nM. The IC50 in assay [2] (setting [5]) is 19 nM.

`N#Cc1cnc2c(Cl)cc(N[C@@H](c3ccc(F)cc3)c3cn(C4CC4)nn3)cc2c1NC(CN1CCOCC1)c1ccccc1` (stereo partly drawn) [Example 322, 8-chloro-6-(((S)-(1-cyclopropyl-1H-1,2,3-triazol-4-yl)(4-fluorophenyl)methyl)amino)-4-((2-morpholino-1-phenylethyl)amino)quinoline-3-carbonitrile]: in assay [1] (setting [3]), the EC50 is 959 nM. In addition, the IC50 in assay [2] (setting [5]) is 140 nM.

On to `Cc1c(-c2cn(C)cn2)cccc1[C@H](Nc1cc(C#N)c2ncc(C#N)c(NCC(C)(C)C)c2c1)c1cn(C2(C(F)(F)F)CC2)nn1` [Example 1145, (S)-6-(((2-methyl-3-(1-methyl-1H-imidazol-4-yl)phenyl)(1-(1-(trifluoromethyl)cyclopropyl)-1H-1,2,3-triazol-4-yl)methyl)amino)-4-(neopentylamino)quinoline-3,8-dicarbonitrile], for which the EC50 in assay [1] (setting [6]) is 99 nM. Moreover, the IC50 in assay [2] (setting [7]) came to 5 nM.

For `Cn1ccc(CNc2c(C#N)cnc3c(Cl)cc(N[C@@H](c4ccccc4)c4cn(C5CCN(C(C)(C)C)CC5)nn4)cc23)n1` [Example 476, (S)-6-(((1-(1-(tert-butyl)piperidin-4-yl)-1H-1,2,3-triazol-4-yl)(phenyl)methyl)amino)-8-chloro-4-(((1-methyl-1H-pyrazol-3-yl)methyl)amino)quinoline-3-carbonitrile], the EC50 in assay [1] (setting [3]) is greater than 10000 nM. In addition, the half-inhibitory concentration (IC50) in assay [2] (setting [4]) was found to be 1740 nM.

For the compound `CC(C)n1cc([C@@H](Nc2cc(Cl)c3ncc(C#N)c(Nc4ccc(F)c(Cl)c4)c3c2)c2cccc(CN(C)CCN(C)C)c2)nn1` [Example 710, (S)-8-chloro-4-((3-chloro-4-fluorophenyl)amino)-6-(((3-(((2-(dimethylamino)ethyl)(methyl)amino)methyl)phenyl) (1-isopropyl-1H-1,2,3-triazol-4-yl)methyl)amino) quinoline-3-carbonitrile], in assay [1] (setting [3]), the EC50 came to 352 nM. Also, the IC50 in assay [2] (setting [4]) came out at 20 nM.

Turning to `[2H][C@@](Nc1cc(C#N)c2ncc(C#N)c(NC3CCOCC3(C)C)c2c1)(c1cn(C2CC2)nn1)c1ccccc1Cl` (stereo partly drawn) [Example 128, 6-(((S)-(2-chlorophenyl) (1-cyclopropyl-1H-1,2,3-triazol-4-yl)methyl-d)amino)-4-((3,3-dimethyltetrahydro-2H-pyran-4-yl)amino)quinoline-3,8-dicarbonitrile], in assay [1] (setting [3]), the EC50 was determined as 54 nM. Also, in assay [2] (setting [5]), the IC50 was 2 nM.

Regarding `N#Cc1cnc2c(Cl)cc(N[C@@H](c3ccccc3)c3cn(C4C5CN(C6COC6)CC54)nn3)cc2c1Nc1ccc(F)c(Cl)c1` (stereo partly drawn) [Example 574, 8-chloro-4-((3-chloro-4-fluorophenyl)amino)-6-(((1S)-(1-(3-(oxetan-3-yl)-3-azabicyclo[3.1.0]hexan-6-yl)-1H-1,2,3-triazol-4-yl)(phenyl)methyl)amino) quinoline-3-carbonitrile], the half-maximal effective concentration (EC50) in assay [1] (setting [3]) was determined as 161 nM. Further, the IC50 in assay [2] (setting [4]) was determined as 42 nM.

Regarding `CC(O)c1cccc([C@H](Nc2cc(Cl)c3ncc(C#N)c(Nc4ccc(F)c(Cl)c4)c3c2)c2cn(C3CCN(C(C)(C)C)CC3)nn2)c1` (some centres unmarked) [Compound 22], the EC50 in assay [1] (setting [3]) amounted to 158 nM. Further, in assay [2] (setting [5]), the IC50 is 2 nM.

`CCOc1ccc(Nc2c(C#N)cnc3c(Cl)cc(N[C@@H](c4ccc(Cl)cc4)c4cn(C5CCN(C(C)(C)C)CC5)nn4)cc23)cc1Cl` [Example 655, (S)-6-(((1-(1-(tert-butyl)piperidin-4-yl)-1H-1,2,3-triazol-4-yl)(4-chlorophenyl)methyl)amino)-8-chloro-4-((3-chloro-4-ethoxyphenyl)amino)quinoline-3-carbonitrile]: in assay [1] (setting [3]), the EC50 was 10500 nM. Besides, the IC50 in assay [2] (setting [4]) stood at 324 nM.

For `C[Si](C)(C)Cn1cc([C@@H](Nc2cc(Cl)c3ncc(C#N)c(Nc4cnc(F)c(F)c4)c3c2)c2ccccc2F)nn1` [Example 431, (S)-8-chloro-4-((5,6-difluoropyridin-3-yl)amino)-6-(((2-fluorophenyl)(1-((trimethylsilyl)methyl)-1H-1,2,3-triazol-4-yl)methyl)amino)quinoline-3-carbonitrile], the concentration for a half-maximal effect (EC50) in assay [1] stood at 3280 nM. Besides, in assay [2] (setting [4]), the IC50 came out at 96 nM.

Take `[2H][C@](Nc1cc(Cl)c2ncc(C#N)c(NCC(Cl)(Cl)Cl)c2c1)(c1ccc(F)cc1)c1cn(C2CC2)nn1` [Example 191, (S)-8-chloro-6-(((1-cyclopropyl-1H-1,2,3-triazol-4-yl)(4-fluorophenyl)methyl-d)amino)-4-((2,2,2-trichloroethyl)amino) quinoline-3-carbonitrile]: the 50% effective concentration (EC50) in assay [1] (setting [3]) is 487 nM. The IC50 in assay [2] (setting [5]) is 56 nM.

`[2H][C@](Nc1cc(-c2cnco2)c2ncc(C#N)c(NCC(C)(C)C)c2c1)(c1ccc(F)cc1)c1cn(C2CC2)nn1` [Example 63, (S)-6-(((1-cyclopropyl-1H-1,2,3-triazol-4-yl)(4-fluorophenyl)methyl-d)amino)-4-(neopentylamino)-8-(oxazol-5-yl)quinoline-3-carbonitrile]: the EC50 in assay [1] (setting [3]) is greater than 1000 nM. Also, the IC50 in assay [2] (setting [5]) stood at 213 nM.

Consider `N#Cc1cnc2c(Cl)cc(N[C@@H](c3ccccc3)c3cn(CCCF)nn3)cc2c1Nc1ccc(F)c(Cl)c1` [Example 666, (S)-8-chloro-4-((3-chloro-4-fluorophenyl)amino)-6-(((1-(3-fluoropropyl)-1H-1,2,3-triazol-4-yl)(phenyl)methyl)amino) quinoline-3-carbonitrile], for which, in assay [1] (setting [3]), the EC50 amounted to 458 nM. Further, in assay [2] (setting [4]), the IC50 turned out to be 14 nM.

For `Cc1c(-c2ccnnc2)cccc1[C@H](Nc1cc(C#N)c2ncc(C#N)c(NCC(C)(C)C)c2c1)c1cn(C2(C(F)F)CC2)nn1` [Example 1155, (S)-6-(((1-(1-(difluoromethyl)cyclopropyl)-1H-1,2,3-triazol-4-yl)(2-methyl-3-(pyridazin-4-yl)phenyl)methyl)amino)-4-(neopentylamino)quinoline-3,8-dicarbonitrile], the EC50 in assay [1] (setting [6]) came out at 60 nM. Besides, the IC50 in assay [2] (setting [7]) was 1 nM.

Take `CC[C@@H](Nc1c(C#N)cnc2c(Cl)cc(N[C@@H](c3ccccc3)c3cn(C(C)C)nn3)cc12)c1ccccc1` [Example 592, 8-chloro-6-(((S)-(1-isopropyl-1H-1,2,3-triazol-4-yl)(phenyl)methyl)amino)-4-(((R)-1-phenylpropyl)amino)quinoline-3-carbonitrile]: in assay [1] (setting [3]), the EC50 was found to be 352 nM. The IC50 in assay [2] (setting [4]) was 7 nM.

For the compound `[2H]C(Nc1cc(Cl)c2ncc(C#N)c(N[C@H](CC)c3ccccc3)c2c1F)(c1cccc(C#N)c1)c1cn(C2CC2)nn1` (some centres unmarked) [Compound 36], in assay [1] (setting [3]), the EC50 is greater than 10000 nM. Besides, the IC50 in assay [2] (setting [5]) is greater than 10000 nM.

As to `Cc1c(-c2cnn(C)c2)cccc1[C@H](Nc1cc(Cl)c2ncc(C#N)c(NCC(C)(C)C)c2c1)c1cn(C2(C(F)F)CC2)nn1` [Example 1086, (S)-8-chloro-6-(((1-(1-(difluoromethyl)cyclopropyl)-1H-1,2,3-triazol-4-yl)(2-methyl-3-(1-methyl-1H-pyrazol-4-yl)phenyl)methyl)amino)-4-(neopentylamino)quinoline-3-carbonitrile], the EC50 in assay [1] (setting [6]) turned out to be 76 nM. The IC50 in assay [2] (setting [7]) came to 4 nM.

Consider `CC(C)(C)N1CCC(n2cc([C@@H](Nc3cc(Cl)c4ncc(C#N)c(NC[Si](C)(C)C)c4c3)c3ccccc3)nn2)CC1` [Example 489, (S)-6-(((1-(1-(tert-butyl)piperidin-4-yl)-1H-1,2,3-triazol-4-yl)(phenyl)methyl)amino)-8-chloro-4-(((trimethylsilyl)methyl)amino)quinoline-3-carbonitrile], for which, in assay [1], the EC50 came out at 184 nM. In addition, the IC50 in assay [2] (setting [4]) was determined as 10 nM.

As to `N#Cc1cnc2c(Cl)cc(N[C@@H](c3ccc(F)cc3)c3cn(-c4ccccc4C(F)(F)F)nn3)cc2c1Nc1cnc(F)c(F)c1` [Example 336, (S)-8-chloro-4-((5,6-difluoropyridin-3-yl)amino)-6-(((4-fluorophenyl)(1-(2-(trifluoromethyl)phenyl)-1H-1,2,3-triazol-4-yl)methyl)amino)quinoline-3-carbonitrile], in assay [1] (setting [3]), the EC50 worked out at 619 nM. In addition, the IC50 in assay [2] (setting [5]) amounted to 71 nM.

The EC50 is the concentration needed to bring the measured effect to its halfway point. As usually defined, the IC50 is the concentration that inhibits the measured activity by half.
